These results are taken from PMC6268855, “New Trifluoromethyl Triazolopyrimidines as Anti-Plasmodiumfalciparum Agents” (Molecules, 2012).

Format in all cases: cell-based
For series [1], the system named is Plasmodium falciparum chloroquine-resistant W2 clone. Put plainly: anti-HRP2 test on P. falciparum-infected erythrocytes. As to conditions: for IC50: Plasmodium falciparum, read-out: IC50 Plasmodium Falciparum Anti-HRP2; for activity class against P. falciparum: class by IC50. Here is the method: (§1) Briefly, the parasites were kept as described at 37 °C in human erythrocytes (A^+) in complete medium (RPMI 1640 supplemented with 10% human sera blood group A^+, 2% glutamine, and 7.5% NaHCO3) either in Petri dishes in a candle jar or in 25-cm culture flasks in an environment containing a gas mixture atmosphere (3% O2, 5% CO2 and 91% N2). Before testing, the ring-stage parasites were synchronized by sorbitol; the suspension was adjusted for parasitemia and hematocrit as described below for each test used.
(§2) The effects of compounds against the W2 P. falciparum blood cultures were evaluated through incorporation of ^3H hypoxanthine (Perkin Elmer, Waltham, MA, USA) by the parasites. Alternatively, compound effects were also examined using monoclonal antibodies to a commercially available parasite histidine and alanine-rich protein (HRP2) (MPFM ICLLAB-55A®, MPFG55P ICLLAB®, Immunology Consultants Laboratory Inc. (ICL), Portland, OR, USA), as described previously. The [3H]-hypoxanthine assay was performed with 1% of parasitemia and 1% of hematocrit, and the level of isotope incorporation was read in a beta-counter (Perkin Elmer). The anti-HRP2 test was performed with 0.05% parasitemia and 1.5% hematocrit, and the quantification of protein was determined using a specific read at 450 nm in a spectrophotometer (SpectraMax340PC^384, Molecular Devices, Sunnyvale, CA, USA). Drug activities were expressed by the half-maximal inhibitory dose (IC50) compared to the drug-free controls and estimated using the curve-fitting software Origin 8.0 (OriginLab Corporation, Northampton, MA, USA).

Series [2] shares this test system. In words: [3H]-hypoxanthine incorporation assay on P. falciparum-infected erythrocytes. As to conditions: read-out: IC50 Plasmodium Falciparum Hypoxanthine. Here is the method: as §1, §2
Series [3] deals with human hepatoma cell line (HepG2). The following applies: MTT, 24 h incubation. Here is the method: For in vitro cytotoxicity experiments, the cell monolayer was trypsinized, washed with culture medium, distributed in a flat-bottomed 96-well plate (5 × 10^3 cells/well), and finally incubated for 18 h at 37 °C for cell adherence.
For cytotoxicity testing, we used the (3-(4,5-dimethylthiazol-2-yl)-2,5-diphenyltetrazolium bromide (MTT) assay, performed as described in the literature. The HepG2 cell line was incubated with 20 µL of the compounds in different concentrations (200–25 µg/mL) for 24 h in an atmosphere of 5% CO2 at 37 °C.
For the MTT assay, which evaluates mitochondrial viability, 20 µL of MTT solution (5 mg/mL) was added, and the plates were incubated for an additional 3 h. After incubation, the supernatant was carefully removed from the wells, followed by addition of 100 µL DMSO with thorough mixing. Optical densities at 570 and 630 nm (background) were determined by an ELISA reader.
Cell viability was expressed as the percentage of control absorbance obtained in untreated cells after subtracting the absorbance from appropriate background. Lastly, the minimum lethal dose for 50% of the cells (MLD50) was determined as previously described in the literature. The ratio between MLD50 and drug activity (IC50) in vitro was used to determine the selectivity index (SI).

Where [4] appears, read: Erythrocyte, W2 clone, 0.05% parasitemia, 1.5% hematocrit.
Where [5] appears, read: Erythrocyte, W2 clone, 1% parasitemia, 1% hematocrit.

Each structure is given as a SMILES string. Where only a bound is given, the exact number is not on record here.

One may read the IC50 as the midpoint of a concentration-inhibition curve. Regarding `CCN(CC)CCCC(C)Nc1ccnc2cc(Cl)ccc12` (stereo not shown) [Chloroquine, reference compound], the IC50 in series [1] (W2, Erythrocyte) is 0.22 µM; in series [2] (W2, Erythrocyte), 0.23 µM. In addition, the “MDL50 HepG2” value in series [3] was 490 µM.

As for `Cc1cc(Nc2cccc3ccccc23)n2nc(C(F)(F)F)nc2n1` [Compound 4, 5-Methyl-7-(naphthalen-1-ylamine)-2-(trifluoromethyl)[1,2,4]triazolo[1,5-a]pyrimidine], the IC50 in series [1] (setting [4]) is 2.2 µM. Also, the “MDL50 HepG2” value in series [3] was 326 µM.

For the molecule `Cc1cc(Nc2ccc3ccccc3c2)n2nc(C(F)(F)F)nc2n1` [Compound 5, 5-Methyl-7-(naphthalen-2-ylamine)-2-(trifluoromethyl)[1,2,4]triazolo[1,5-a]pyrimidine], the half-maximal inhibitory concentration (IC50) in series [1] (setting [4]) came to 0.023 ± 0.002 µM. In addition, in series [3], the “MDL50 HepG2” value is listed as 425 µM.

Turning to `Cc1cc(Nc2ccccc2)n2nc(C(F)(F)F)nc2n1` [Compound 6, 5-Methyl-7-phenylamine-2-(trifluoromethyl)[1,2,4]triazolo[1,5-a]pyrimidine], the IC50 in series [1] (setting [4]) is 3 ± 2 µM; in series [2] (setting [5]), 10.2 ± 5 µM. In addition, the “MDL50 HepG2” value in series [3] is on record as more than 682 µM.

As to `Cc1cc(Nc2cccc(Cl)c2)n2nc(C(F)(F)F)nc2n1` [Compound 7, 7-(3-Chlorophenylamine)-5-methyl-2-(trifluoromethyl)[1,2,4]triazolo[1,5-a]pyrimidine], the figures for the IC50 in series [1] (setting [4]) and in series [2] (setting [5]) were 1.83 ± 1.1 µM and 1.22 µM, respectively. Moreover, the “MDL50 HepG2” value in series [3] is on record as 373 µM.

Regarding `Cc1cc(Nc2ccc(Cl)c(Cl)c2)n2nc(C(F)(F)F)nc2n1` [Compound 8, 7-(3,4-Dichlorophenylamine)-5-methyl-2-(trifluoromethyl)[1,2,4]triazolo[1,5-a]pyrimidine], the IC50 was found to be 0.55 ± 0.66 µM in series [1] (setting [4]) and 0.11 ± 0.05 µM in series [2] (setting [5]). Also, the “MDL50 HepG2” value in series [3] is more than 552 µM.

For the molecule `Cc1cc(Nc2ccc(Cl)cc2Cl)n2nc(C(F)(F)F)nc2n1` [Compound 9, 7-(2,4-Dichlorophenylamine)-5-methyl-2-(trifluoromethyl)[1,2,4]triazolo[1,5-a]pyrimidine], the values for the IC50 in series [1] (setting [4]) and in series [2] (setting [5]) were 2.7 ± 2.21 µM and 3.32 ± 1.1 µM, respectively. In addition, the “MDL50 HepG2” value in series [3] is on record as 320 µM.

With `Cc1cc(Nc2c(F)cccc2F)n2nc(C(F)(F)F)nc2n1` [Compound 10, 7-(2,6-Difluorophenylamine)-5-methyl-2-(trifluoromethyl)[1,2,4]triazolo[1,5-a]pyrimidine], the figures for the IC50 in series [1] (setting [4]) and in series [2] (setting [5]) were more than 69.9 µM and more than 149 µM, respectively. Also, in series [1] (W2 clone), the “activity class against P. falciparum” value was “Inactive”. Further, the “MDL50 HepG2” value in series [3] is 337 µM.

`COc1ccc(Nc2cc(C)nc3nc(C(F)(F)F)nn23)cc1` [Compound 11, 7-(4-Methoxyphenylamine)-5-methyl-2-(trifluoromethyl)[1,2,4]triazolo[1,5-a]pyrimidine]: the IC50 worked out at 0.4 ± 0.09 µM in series [1] (setting [4]) and 1.5 ± 1.2 µM in series [2] (setting [5]). Also, the “MDL50 HepG2” value in series [3] is reported as more than 619 µM.

For `COc1cc(Nc2cc(C)nc3nc(C(F)(F)F)nn23)cc(OC)c1` [Compound 12, 7-(3,5-Dimethoxyphenylamine)-5-methyl-2-(trifluoromethyl)[1,2,4]triazolo[1,5-a]pyrimidine], the values for the half-inhibitory concentration (IC50) in series [1] (setting [4]) and in series [2] (setting [5]) were 2.5 ± 0.05 µM and 0.36 ± 0.1 µM, respectively. For the same molecule, the “MDL50 HepG2” value in series [3] is recorded as 498 µM.

Regarding `Cc1cc(Nc2cc(Cl)cc(Cl)c2)n2nc(C(F)(F)F)nc2n1` [Compound 13, 7-(3,5-Dichlorophenylamine)-5-methyl-2-(trifluoromethyl)[1,2,4]triazolo[1,5-a]pyrimidine], the concentration for half-maximal inhibition (IC50) in series [1] (setting [4]) was 1.47 ± 0.11 µM; in series [2] (setting [5]) it was 0.83 ± 0.58 µM. In series [3], the “MDL50 HepG2” value was 320 µM.

Turning to `COc1cc(Nc2cc(C)nc3nc(C)nn23)cc(OC)c1` [Compound 14, 7-(3,5-Dimethoxyphenylamine)-2,5-dimethyl[1,2,4]triazolo[1,5-a]pyrimidine], the half-inhibitory concentration (IC50) in series [1] (setting [4]) came to 3.84 ± 0.4 µM; in series [2] (setting [5]) it was 15.1 ± 10 µM. In series [3], the “MDL50 HepG2” value was found to be 515 µM.

On to `Cc1cc(Nc2cc(Cl)cc(Cl)c2)n2nc(C)nc2n1` [Compound 15, 7-(3,5-Dichlorophenylamine)-2,5-dimethyl[1,2,4]triazolo[1,5-a]pyrimidine], for which the concentration for half-maximal inhibition (IC50) in series [1] (setting [4]) is more than 162 µM; in series [2] (setting [5]), 149 µM. For the same molecule, the “activity class against P. falciparum” value in series [1] (W2 clone) is recorded as “Inactive”. Also, the “MDL50 HepG2” value in series [3] came out at 415 µM.

With `Cc1cc(Nc2ccc(C(F)(F)F)cc2)n2nc(C)nc2n1` [Compound 16, 2,5-Dimethyl-7-(4-(trifluoromethyl)phenylamine)-[1,2,4]triazolo[1,5-a]pyrimidine], the 50% inhibitory concentration (IC50) in series [1] (setting [4]) turned out to be 0.3 µM; in series [2] (setting [5]) it was 0.4 ± 0.06 µM. Besides, the “MDL50 HepG2” value in series [3] is recorded as 446 µM.

Turning to `FC(F)(F)c1cc(Nc2cc(Cl)cc(Cl)c2)n2nc(C(F)(F)F)nc2n1` [Compound 17, 7-(3,5-Dichlorophenylamine)-2,5-bis(trifluoromethyl)[1,2,4]triazolo[1,5-a]pyrimidine], the figures for the IC50 in series [1] (setting [4]) and in series [2] (setting [5]) were 12.3 µM and 23.4 µM, respectively. Moreover, the “MDL50 HepG2” value in series [3] is given as 269 µM.

Take `Cc1cc(NC2CCCCC2)n2nc(C(F)(F)F)nc2n1` [Compound 18, 7-Cyclohexylamine-5-methyl-2-(trifluoromethyl)[1,2,4]triazolo[1,5-a]pyrimidine]: the IC50 in series [1] (setting [4]) came to 8.69 ± 0.46 µM; in series [2] (setting [5]), 10 µM. The “MDL50 HepG2” value in series [3] is reported as 515 µM.

`Cc1cc(N2CCOCC2)n2nc(C(F)(F)F)nc2n1` [Compound 19]: the IC50 in series [1] (setting [4]) and in series [2] (setting [5]) was more than 174 µM each time. In addition, the “activity class against P. falciparum” value in series [1] (W2 clone) is “Inactive”. Further, in series [3], the “MDL50 HepG2” value is recorded as more than 697 µM.

For `Cc1cc(N2CCN(C)CC2)n2nc(C(F)(F)F)nc2n1` [Compound 20, 5-Methyl-7-(4-methylpiperazin-1-yl)-2-(trifluoromethyl)[1,2,4]triazolo[1,5-a]pyrimidine], the concentration for half-maximal inhibition (IC50) in series [1] (setting [4]) worked out at 39 ± 17 µM; in series [2] (setting [5]) it was 57 ± 13 µM. The “activity class against P. falciparum” value in series [1] (W2 clone) is listed as “Inactive”. In series [3], the “MDL50 HepG2” value was more than 666 µM.

For the molecule `Cc1cc(N2CCCC2)n2nc(C(F)(F)F)nc2n1` [Compound 21, 5-Methyl-7-(pyrrolidin-1-yl)-2-(trifluoromethyl)[1,2,4]triazolo[1,5-a]pyrimidine], the IC50 in series [1] (setting [4]) and in series [2] (setting [5]) was more than 184 µM each time. Besides, the “activity class against P. falciparum” value in series [1] (W2 clone) is recorded as “Inactive”. For the same molecule, the “MDL50 HepG2” value in series [3] is more than 738 µM.

For the molecule `Cc1cc(Nc2ccccn2)n2nc(C(F)(F)F)nc2n1` [Compound 22, 5-Methyl-7-(pyridin-2-ylamine)-2-(trifluoromethyl)[1,2,4]triazolo[1,5-a]pyrimidine], the 50% inhibitory concentration (IC50) in series [1] (setting [4]) was more than 156 µM; in series [2] (setting [5]) it was more than 170 µM. The “activity class against P. falciparum” value in series [1] (W2 clone) is “Inactive”. Further, the “MDL50 HepG2” value in series [3] worked out at 394 µM.

For `Cc1cc(Nc2nc(C(F)(F)F)n[nH]2)n2nc(C(F)(F)F)nc2n1` [Compound 23, 5-Methyl-2-(trifluoromethyl)-7-(5-(trifluoromethyl)-3-amine-4H-1,2,4-triazolyl)[1,2,4]triazolo[1,5-a]pyrimidine], the values for the IC50 in series [1] (setting [4]) and in series [2] (setting [5]) were 36.9 ± 11.4 µM and 31.2 ± 17 µM, respectively. The “activity class against P. falciparum” value in series [1] (W2 clone) is given as “Inactive”. In series [3], the “MDL50 HepG2” value is recorded as less than 71 µM.

For the molecule `Cc1cc(-n2cccn2)n2nc(C(F)(F)F)nc2n1` [Compound 24, 5-Methyl-7-(1H-pyrazol-1-yl)-2-(trifluoromethyl)[1,2,4]triazolo[1,5-a]pyrimidine], in series [1] (setting [4]), the IC50 was 2.1 µM. Besides, in series [3], the “MDL50 HepG2” value is given as more than 746 µM.

Consider `Cc1cc(-n2ccnc2)n2nc(C(F)(F)F)nc2n1` [Compound 25, 7-(1H-Imidazol-1-yl)-5-methyl-2-(trifluoromethyl)[1,2,4]triazolo[1,5-a]pyrimidine], for which the half-maximal inhibitory concentration (IC50) in series [1] (setting [4]) is 21 ± 2 µM; in series [2] (setting [5]) it was 15 ± 0.7 µM. Besides, in series [3], the “MDL50 HepG2” value is reported as less than 93 µM.
